According to patent US11807835B2, “Detergent compositions containing a stabilized enzyme by phosphonates” (ECOLAB USA INC., priority 2016, dated 2023):

What was measured:
amylase = test: Amylase activity retention in detergent use solution (4000 ppm, 5 GPG water; ethylidene substrate EPS, HEPES buffer pH 8.0); type: biochemical
Procedure: (§1) The enzyme activities in the detergents with different phosphonate levels were tested at 4000 ppm in 5 grains per gallon (GPG) water at 120° F. with various time points collected up to 4 hours, after a use solution was generated from the detergent composition. During the tests, the samples at different time points were collected and immediately frozen in an acetone/dry ice bath and stored in −80° C. before the activity of the enzyme was evaluated. For the use of such an assay, t=0 min was the reference point for 100% enzyme activity.
(§2) Assays of enzyme activity in formulations (% retention) were conducted to simulate a presoak condition in a beaker using the chemistry, temperature, and pH conditions relevant to manual warewash or presoak applications. Enzyme activity is an indicator of the stability of the enzyme in the detergent, specifically in an aqueous use solution within a sump (which is under conditions of high pH, temperature and dilution).
Enzyme activity under presoak or manual warewash conditions was traced quantitatively using a standard protease assay. Samples were prepared under bench top conditions, whereby the use solution from a detergent composition or detergent was obtained and maintained at a presoak or manual warewash temperature in a stirring water bath. After the time course for assessing enzyme stability is initiated, aliquots were taken at various time points and flash-frozen. A time=0 sample was prepared for each series by dissolving the detergent formulation at room temperature, mixing thoroughly, and flash freezing. Samples were thawed and diluted as necessary in an assay buffer usually for use in the protease assay. A glycine buffer at pH 9.0 is used here. The assay monitored the direct reaction of the protease on a small, commercially available peptidyl substrate, with liberation of the product providing correlation to the active enzyme content. The product was detected using a plate reader with an appreciable dynamic range (upper absorbance limit of the instrument >3.5). Enzyme activity levels were assessed relative to a calibration curve with average values for replicate tests used to map protease stability under presoak or manual warewash use conditions. Enzyme retention at each time point was calculated as the % enzyme activity relative to the time=0 sample.
The analysis by lipase and amylase assay was conducted similarly, except with a different substrate and buffers. For lipase activity, the substrate is p-nitrophenyl valerate, and for amylase, the substrate is an ethylidene substrate (EPS). The buffer used in lipase assay is TRIS (Tris(hydroxymethyl)aminomethane) buffer at pH 8.0, and in amylase assay HEPES (4-(2-hydroxyethyl)-1-piperazineethanesulfonic acid) buffer at pH 8.0.

[1] = test system: enzyme (protease, amylase, lipase); test: Overall effects of phosphonates on enzyme activity (Table 3); type: biochemical; conditions: overall effect of the phosphonate on enzyme activity in the detergent use solution
Procedure: as §1, §2
The relative enzyme activities in a use solution of the tested detergent compositions containing a different phosphonate at different concentrations over a period time are listed in Table 4A-Table 4E, Table 5A-Table 5E, and Table 6A-Table 6F.

[2] = All Ash formula, phosphonate 0.3 wt-%, use solution at 120° F., time 0 min
[3] = All Ash formula, phosphonate 0.3 wt-%, use solution at 120° F., time 5 min
[4] = All Ash formula, phosphonate 0.3 wt-%, use solution at 120° F., time 10 min
[5] = All Ash formula, phosphonate 0.3 wt-%, use solution at 120° F., time 20 min
[6] = All Ash formula, phosphonate 0.3 wt-%, use solution at 120° F., time 40 min
[7] = All Ash formula, phosphonate 0.3 wt-%, use solution at 120° F., time 60 min
[8] = All Ash formula, phosphonate 0.3 wt-%, use solution at 120° F., time 90 min
[9] = All Ash formula, phosphonate 0.3 wt-%, use solution at 120° F., time 120 min
[10] = All Ash formula, phosphonate 0.3 wt-%, use solution at 120° F., time 150 min
[11] = All Ash formula, phosphonate 0.3 wt-%, use solution at 120° F., time 180 min
[12] = All Ash formula, phosphonate 0.3 wt-%, use solution at 120° F., time 210 min
[13] = All Ash formula, phosphonate 0.3 wt-%, use solution at 120° F., time 240 min
[14] = base formula, phosphonate 0.3 wt-%, use solution at 120° F., time 0 min
[15] = base formula, phosphonate 0.3 wt-%, use solution at 120° F., time 5 min
[16] = base formula, phosphonate 0.3 wt-%, use solution at 120° F., time 10 min
[17] = base formula, phosphonate 0.3 wt-%, use solution at 120° F., time 20 min
[18] = base formula, phosphonate 0.3 wt-%, use solution at 120° F., time 40 min
[19] = base formula, phosphonate 0.3 wt-%, use solution at 120° F., time 60 min
[20] = base formula, phosphonate 0.3 wt-%, use solution at 120° F., time 90 min
[21] = base formula, phosphonate 0.3 wt-%, use solution at 120° F., time 120 min
[22] = base formula, phosphonate 0.3 wt-%, use solution at 120° F., time 150 min
[23] = base formula, phosphonate 0.3 wt-%, use solution at 120° F., time 180 min
[24] = base formula, phosphonate 0.3 wt-%, use solution at 120° F., time 210 min
[25] = base formula, phosphonate 0.3 wt-%, use solution at 120° F., time 240 min
[26] = base formula, phosphonate 0.6 wt-%, use solution at 120º F., time 0 min
[27] = base formula, phosphonate 0.6 wt-%, use solution at 120º F., time 5 min
[28] = base formula, phosphonate 0.6 wt-%, use solution at 120º F., time 10 min
[29] = base formula, phosphonate 0.6 wt-%, use solution at 120º F., time 20 min
[30] = base formula, phosphonate 0.6 wt-%, use solution at 120º F., time 40 min
[31] = base formula, phosphonate 0.6 wt-%, use solution at 120º F., time 60 min
[32] = base formula, phosphonate 0.6 wt-%, use solution at 120º F., time 90 min
[33] = base formula, phosphonate 0.6 wt-%, use solution at 120º F., time 120 min
[34] = base formula, phosphonate 0.6 wt-%, use solution at 120º F., time 150 min
[35] = base formula, phosphonate 0.6 wt-%, use solution at 120º F., time 180 min
[36] = base formula, phosphonate 0.6 wt-%, use solution at 120º F., time 210 min
[37] = base formula, phosphonate 0.6 wt-%, use solution at 120º F., time 240 min
[38] = base formula, phosphonate at 0.1% elemental phosphorus level, use solution at 120º F., time 5 min
[39] = base formula, phosphonate at 0.1% elemental phosphorus level, use solution at 120º F., time 10 min
[40] = base formula, phosphonate at 0.1% elemental phosphorus level, use solution at 120º F., time 20 min
[41] = base formula, phosphonate at 0.1% elemental phosphorus level, use solution at 120º F., time 40 min
[42] = base formula, phosphonate at 0.1% elemental phosphorus level, use solution at 120º F., time 60 min
[43] = base formula, phosphonate at 0.1% elemental phosphorus level, use solution at 120º F., time 90 min
[44] = base formula, phosphonate at 0.1% elemental phosphorus level, use solution at 120º F., time 120 min
[45] = base formula, phosphonate at 0.1% elemental phosphorus level, use solution at 120º F., time 180 min
[46] = base formula, phosphonate at 0.1% elemental phosphorus level, use solution at 120º F., time 210 min
[47] = base formula, phosphonate at 0.1% elemental phosphorus level, use solution at 120º F., time 240 min

Q: What does the source list for CC(O)(P(=O)(O)O)P(=O)(O)O [HEDP, 1-hydroxy ethylidene-1,1-diphosphonic acid]?
A: Relative Amylase Enzyme Activity (amylase; [2]): 92.90%; Relative Amylase Enzyme Activity (amylase; [3]): 100.00%; Relative Amylase Enzyme Activity (amylase; [4]): 97.04%; Relative Amylase Enzyme Activity (amylase; [5]): 87.85%; Relative Amylase Enzyme Activity (amylase; [6]): 70.85%; Relative Amylase Enzyme Activity (amylase; [7]): 55.60%; Relative Amylase Enzyme Activity (amylase; [8]): 63.30%; Relative Amylase Enzyme Activity (amylase; [9]): 58.18%; Relative Amylase Enzyme Activity (amylase; [10]): 54.50%; Relative Amylase Enzyme Activity (amylase; [11]): 45.78%; Relative Amylase Enzyme Activity (amylase; [12]): 44.79%; Relative Amylase Enzyme Activity (amylase; [13]): 41.67%; Relative Amylase Enzyme Activity (amylase; [14]): 100.00%; Relative Amylase Enzyme Activity (amylase; [15]): 81.99%; Relative Amylase Enzyme Activity (amylase; [16]): 90.32%; Relative Amylase Enzyme Activity (amylase; [17]): 95.23%; Relative Amylase Enzyme Activity (amylase; [18]): 84.92%; Relative Amylase Enzyme Activity (amylase; [19]): 72.27%; Relative Amylase Enzyme Activity (amylase; [20]): 79.95%; Relative Amylase Enzyme Activity (amylase; [21]): 84.46%; Relative Amylase Enzyme Activity (amylase; [22]): 79.54%; Relative Amylase Enzyme Activity (amylase; [23]): 84.18%; Relative Amylase Enzyme Activity (amylase; [24]): 69.49%; Relative Amylase Enzyme Activity (amylase; [25]): 88.63%; Relative Amylase Enzyme Activity (amylase; [26]): 100.00%; Relative Amylase Enzyme Activity (amylase; [27]): 96.09%; Relative Amylase Enzyme Activity (amylase; [28]): 99.71%; Relative Amylase Enzyme Activity (amylase; [29]): 91.20%; Relative Amylase Enzyme Activity (amylase; [30]): 94.89%; Relative Amylase Enzyme Activity (amylase; [31]): 97.28%; Relative Amylase Enzyme Activity (amylase; [32]): 94.67%; Relative Amylase Enzyme Activity (amylase; [33]): 88.12%; Relative Amylase Enzyme Activity (amylase; [34]): 90.33%; Relative Amylase Enzyme Activity (amylase; [35]): 86.96%; Relative Amylase Enzyme Activity (amylase; [36]): 96.92%; Relative Amylase Enzyme Activity (amylase; [37]): 92.50%; Relative Amylase Enzyme Activity (amylase; [38]): 100.00%; Relative Amylase Enzyme Activity (amylase; [39]): 97.58%; Relative Amylase Enzyme Activity (amylase; [40]): 90.30%; Relative Amylase Enzyme Activity (amylase; [41]): 81.48%; Relative Amylase Enzyme Activity (amylase; [42]): 83.84%; Relative Amylase Enzyme Activity (amylase; [43]): 85.26%; Relative Amylase Enzyme Activity (amylase; [44]): 82.59%; Relative Amylase Enzyme Activity (amylase; [45]): 75.47%; Relative Amylase Enzyme Activity (amylase; [46]): 85.77%; Relative Amylase Enzyme Activity (amylase; [47]): 81.23%; Stability (effects on enzyme activity) [1]: No

Q: What does the source list for O=C(O)CCC(CC(=O)O)(C(=O)O)P(=O)(O)O (stereo not drawn) [PBTC, Phosphonebutane tricarboxylic acid]?
A: Relative Amylase Enzyme Activity (amylase; [2]): 98.88%; Relative Amylase Enzyme Activity (amylase; [3]): 100.00%; Relative Amylase Enzyme Activity (amylase; [4]): 94.76%; Relative Amylase Enzyme Activity (amylase; [5]): 90.04%; Relative Amylase Enzyme Activity (amylase; [6]): 63.67%; Relative Amylase Enzyme Activity (amylase; [7]): 58.65%; Relative Amylase Enzyme Activity (amylase; [8]): 54.03%; Relative Amylase Enzyme Activity (amylase; [9]): 45.38%; Relative Amylase Enzyme Activity (amylase; [10]): 44.40%; Relative Amylase Enzyme Activity (amylase; [11]): 41.15%; Relative Amylase Enzyme Activity (amylase; [12]): 41.56%; Relative Amylase Enzyme Activity (amylase; [13]): 40.40%; Relative Amylase Enzyme Activity (amylase; [14]): 100.00%; Relative Amylase Enzyme Activity (amylase; [15]): 96.90%; Relative Amylase Enzyme Activity (amylase; [16]): 94.03%; Relative Amylase Enzyme Activity (amylase; [17]): 86.69%; Relative Amylase Enzyme Activity (amylase; [18]): 83.68%; Relative Amylase Enzyme Activity (amylase; [19]): 86.51%; Relative Amylase Enzyme Activity (amylase; [20]): 84.89%; Relative Amylase Enzyme Activity (amylase; [21]): 85.85%; Relative Amylase Enzyme Activity (amylase; [22]): 76.25%; Relative Amylase Enzyme Activity (amylase; [23]): 81.01%; Relative Amylase Enzyme Activity (amylase; [24]): 81.99%; Relative Amylase Enzyme Activity (amylase; [25]): 81.88%; Relative Amylase Enzyme Activity (amylase; [26]): 100.00%; Relative Amylase Enzyme Activity (amylase; [27]): 107.86%; Relative Amylase Enzyme Activity (amylase; [28]): 111.05%; Relative Amylase Enzyme Activity (amylase; [29]): 106.52%; Relative Amylase Enzyme Activity (amylase; [30]): 73.11%; Relative Amylase Enzyme Activity (amylase; [31]): 79.10%; Relative Amylase Enzyme Activity (amylase; [32]): 71.11%; Relative Amylase Enzyme Activity (amylase; [33]): 64.98%; Relative Amylase Enzyme Activity (amylase; [34]): 74.97%; Relative Amylase Enzyme Activity (amylase; [35]): 85.22%; Relative Amylase Enzyme Activity (amylase; [36]): 94.67%; Relative Amylase Enzyme Activity (amylase; [37]): 97.07%; Relative Amylase Enzyme Activity (amylase; base formula, phosphonate at 0.1% elemental phosphorus level, use solution at 120º F., time 0 min): 90.07%; Relative Amylase Enzyme Activity (amylase; [38]): 100.00%; Relative Amylase Enzyme Activity (amylase; [39]): 98.00%; Relative Amylase Enzyme Activity (amylase; [40]): 89.44%; Relative Amylase Enzyme Activity (amylase; [41]): 90.60%; Relative Amylase Enzyme Activity (amylase; [42]): 86.05%; Relative Amylase Enzyme Activity (amylase; [43]): 90.47%; Relative Amylase Enzyme Activity (amylase; [44]): 89.11%; Relative Amylase Enzyme Activity (amylase; base formula, phosphonate at 0.1% elemental phosphorus level, use solution at 120º F., time 150 min): 88.36%; Relative Amylase Enzyme Activity (amylase; [45]): 82.80%; Relative Amylase Enzyme Activity (amylase; [46]): 84.45%; Relative Amylase Enzyme Activity (amylase; [47]): 91.39%; Stability (effects on enzyme activity) [1]: No
